Like-named read-outs stand apart in the source and are kept apart here.
Target: MRGPRX4 (Homo sapiens, UniProt Q96LA9)
Assay: MRGPR X4 antagonist activity, IP-One Gq HTRF assay in stably transfected HEK cells (versus agonist bilirubin, deoxycholic acid, conjugated bilirubin, urobilin, obeticholic acid or BAR502)
Assay type: cell-based
Set-up: expressed in transfected cells; host or cells: HEK cells, stably transfected
Method: HEK cells stably transfected to express human MRGPR X4 were maintained in an incubator at 37° C. with 5% CO2 and grown in DMEM media with 10% fetal bovine serum (FBS) and 1% each of sodium pyruvate, Glutamax, penicillin/streptomycin, and Geneticin. HEK cells stably transfected to express mouse MRGPR A1 were maintained in the same incubator and grown in DMEM media with 10% FBS, 1% each of sodium pyruvate, Glutamax, penicillin/streptomycin, Geneticin, and 2.2 mg/mL Hygromycin.
Cells were plated in a 384-well assay plate at 20,000 cells per well in 12 μL of Opti-MEM and kept in an incubator overnight. On the day of the assay, compounds solubilized at 10 mM in DMSO were added as a 10-point curve (10 uM final top concentration with 1:3 serial dilutions) using a Tecan D300E digital dispenser. […] Final concentrations of DMSO were kept consistent across the plate. Plates were incubated in the dark for 1 h at 37° C. and then for 30 minutes at room temperature. IP-1 standards and HTRF detection reagents were added according to the IP-One—Gq Kit purchased from Cisbio (part number 62IPAPEJ) and incubated in the dark for 1 h at room temperature. The plate was read on a Molecular Devices SpectraMax iD5 plate reader. The HTRF ratio was calculated from the raw data and graphed using GraphPad Prism to calculate an IC50 value for each compound.

[1] = versus 10 μM Bilirubin agonist, HEK cells expressing human MRGPR X4, read-out: MRGPR4 Antagonist Activity

Chain of MRGPRX4 (Q96LA9 whole entry): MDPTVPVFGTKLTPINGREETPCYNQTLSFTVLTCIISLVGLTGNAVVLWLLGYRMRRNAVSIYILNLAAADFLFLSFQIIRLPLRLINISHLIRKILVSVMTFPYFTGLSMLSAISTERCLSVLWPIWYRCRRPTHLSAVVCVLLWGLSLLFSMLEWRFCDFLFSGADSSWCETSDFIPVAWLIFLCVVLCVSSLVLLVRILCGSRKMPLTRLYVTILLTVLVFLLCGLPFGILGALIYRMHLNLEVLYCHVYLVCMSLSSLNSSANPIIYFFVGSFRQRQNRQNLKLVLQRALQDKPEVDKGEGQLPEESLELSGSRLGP

Row | IC50 [1] [nM] | SMILES | also measured
1 | < 100 | O=C(O)c1cc(Cl)cc(COc2ccc(Cl)cc2Cl)c1 [Compound 2-1, 3-chloro-5-((2,4-dichlorophenoxy)methyl)benzoic acid] | –
2 | < 100 | CCCc1cc(COc2ccc(C(F)(F)F)cc2Cl)nc(C(=O)O)c1 [Compound 39-1, 6-((2-chloro-4-(trifluoromethyl)phenoxy)methyl)-4-propylpicolinic acid] | –
3 | 100 to 500 | Cc1cc(-n2cccc2)ccc1OCc1cccc(C(=O)O)c1F [Compound 4-27] | –
4 | < 100 | Clc1ccc(OCc2cccc(-c3nnn[nH]3)c2)c(Cl)c1Cl [Compound 17-4] | IC50 (versus 10 μM Bilirubin agonist, read-out: IC50 (Bilirubin agonist)): 5 nM; IC50 (versus 20 μM deoxycholic acid, read-out: IC50 (Deoxycholic Acid agonist)): 6 nM; IC50 (versus 20 μM obeticholic acid, read-out: IC50 (Obeticholic Acid Agonist)): 8 nM; IC50 (versus 50 μM urobilin, read-out: IC50 (Urobilin Agonist)): 6 nM; IC50 (versus 100 μM conjugated bilirubin, read-out: IC50 (Conjugated Bilirubin Agonist)): 7 nM
5 | > 2500 | O=C(O)c1cccc(Oc2ccc([N+](=O)[O-])cc2Cl)c1 [Compound 16-2] | –
6 | 100 to 500 | CC(C)NC(=O)c1cccc(COc2ccc(C(F)(F)F)cc2Cl)c1 [Compound 52-8] | –
7 | < 100 | N#Cc1cc(COc2ccc(C(F)(F)F)cc2Cl)nc(C(=O)O)c1 [Compound 43-1, 6-((2-chloro-4-(trifluoromethyl)phenoxy)methyl)-4-cyano-pyridine-2-carboxylic acid] | –
8 | < 100 | O=C(O)c1cccc(COc2ccc(Cl)cc2Cl)c1Cl [Compound 4-9] | –
9 | 100 to 500 | O=C(NC1CCCC1)c1cccc(COc2ccc(C(F)(F)F)cc2Cl)c1 [Compound 52-23] | –
10 | 1000 to 2500 | COC1CCN(C(=O)c2cccc(COc3ccc(C(F)(F)F)cc3Cl)c2)CC1 [Compound 52-14] | –
11 | 100 to 500 | CCNC(=O)c1cccc(COc2ccc(C(F)(F)F)cc2Cl)c1 [Compound 52-10] | –
12 | < 100 | O=C(O)c1cc(F)cc(COc2ccc(Cl)cc2Cl)c1 [Compound 4-4] | –
13 | 100 to 500 | CC(C)[C@H](NC(=O)c1cccc(COc2ccc(C(F)(F)F)cc2Cl)c1)C(=O)O [Compound 54-1, (3-((2-chloro-4-(trifluoromethyl)phenoxy)methyl)benzoyl)-L-valine] | –
14 | 100 to 500 | O=C(NCCO)c1cccc(COc2ccc(C(F)(F)F)cc2Cl)c1 [Compound 52-16] | –
15 | < 100 | N#Cc1cc(COc2ccc(Cl)c(Cl)c2Cl)cc(C(=O)O)c1 [Compound 32-3] | –
16 | < 100 | N#Cc1cc(COc2ccc(OC(F)(F)F)cc2Cl)cc(C(=O)O)c1 [Compound 32-4] | –
17 | 100 to 500 | O=C(N[C@@H](Cc1c[nH]c2ccccc12)C(=O)O)c1cccc(COc2ccc(C(F)(F)F)cc2Cl)c1 [Compound 54-5] | –
18 | < 100 | Fc1c(COc2ccc(C(F)(F)F)cc2Cl)cccc1-c1nnn[nH]1 [Compound 17-15] | –
19 | 500 to 1000 | C#Cc1cc(C(F)(F)F)ccc1OCc1cccc(C(=O)O)c1F [Compound 36-1, 3-((2-ethynyl-4-(trifluoromethyl)phenoxy)methyl)-2-fluorobenzoic acid] | –
20 | 100 to 500 | CNC(=O)c1cccc(COc2ccc(C(F)(F)F)cc2Cl)c1 [Compound 52-26] | –
21 | > 2500 | O=C(c1ccc(COc2ccc(C(F)(F)F)cc2Cl)cc1)N1CC2(COC2)C1 [Compound 52-2] | –

Row | IC50 [1] [nM] | SMILES | also measured
22 | 1000 to 2500 | N#Cc1ccc(COc2ccc(Cl)cc2Cl)cc1C(=O)O [Compound 5-2] | –
23 | 500 to 1000 | CNCCNC(=O)c1cccc(COc2ccc(C(F)(F)F)cc2Cl)c1 [Compound 53-1, 3-((2-chloro-4-(trifluoromethyl)phenoxy)methyl)-N-(2-(methylamino)ethyl)benzamide] | –
24 | < 100 | O=C(O)c1cccc(COc2ccc3ccccc3c2Cl)c1F [Compound 4-21] | –
25 | < 100 | O=C(O)CNC(=O)c1cccc(COc2ccc(C(F)(F)F)cc2Cl)c1 [Compound 54-2] | –
26 | < 100 | Cc1cc(CNc2ccc(C(F)(F)F)cc2Cl)nc(C(=O)O)c1 [Compound 57-1, 6-(((2-chloro-4-(trifluoromethyl)phenyl)amino)methyl)-4-methylpicolinic acid] | –
27 | 100 to 500 | CNCc1cccc(COc2ccc(C(F)(F)F)cc2Cl)c1 [Compound 63-1, 1-(3-((2-chloro-4-(trifluoromethyl)phenoxy)methyl)phenyl)-N-methylmethanamine] | –
28 | 1000 to 2500 | OCc1cccc(COc2ccc(Cl)cc2Cl)c1 [Compound 14-1, (3-((2,4-dichlorophenoxy)methyl)phenyl)methanol] | –
29 | 500 to 1000 | Cc1ccc(OCc2cccc(C(=O)O)c2)c(Cl)c1 [Compound 3-2, 3-((2-chloro-4-methylphenoxy)methyl)benzoic acid] | –
30 | 100 to 500 | O=C(O)c1cccc(COc2ccc(Cl)c(Cl)c2)c1 [Compound 3-6] | –
31 | < 100 | c1cc(COc2ccc3ccccc3c2)cc(-c2nnn[nH]2)c1 [Compound 17-5] | –
32 | < 100 | FC(F)(F)Oc1ccc(OCc2cccc(-c3nnn[nH]3)c2)c(Cl)c1 [Compound 17-8] | –
33 | 100 to 500 | FC(F)(F)c1cc(Cl)ccc1OCc1cccc(-c2nnn[nH]2)c1 [Compound 17-3] | –
34 | 500 to 1000 | O=C(c1cccc(COc2ccc(C(F)(F)F)cc2Cl)c1)N1CCOC1 [Compound 52-25] | –
35 | 100 to 500 | CCOC(=O)c1cccc(COc2ccc(C(F)(F)F)cc2Cl)c1F [Compound 56-1, ethyl 3-((2-chloro-4-(trifluoromethyl)phenoxy)methyl)-2-fluorobenzoate] | –
36 | 1000 to 2500 | Cc1ccc(C(=O)O)cc1COc1ccc(Cl)cc1Cl [Compound 8-2] | –
37 | 100 to 500 | NC(=O)C[C@H](NC(=O)c1cccc(COc2ccc(C(F)(F)F)cc2Cl)c1)C(=O)O [Compound 55-1, (3-((2-chloro-4-(trifluoromethyl)phenoxy)methyl)benzoyl)-L-asparagine] | –
38 | 100 to 500 | O=C(NCCCO)c1cccc(COc2ccc(C(F)(F)F)cc2Cl)c1 [Compound 52-12] | –
39 | < 100 | O=C(O)c1cccc(COc2ccc(C(F)F)cc2Cl)c1 [Compound 33-3] | –
40 | 100 to 500 | O=C(O)c1cccc(COc2ccc(C(F)F)cc2)c1 [Compound 33-2] | –
41 | 100 to 500 | N#Cc1c(COc2ccc(Cl)cc2Cl)cccc1C(=O)O [Compound 4-6] | –

Continued, compound first:

Row | SMILES | IC50 [1] [nM] | also measured
42 | O=C(O)c1cccc(COc2ccccc2C(F)(F)F)c1 [Compound 1-141] | 1000 to 2500 | –
43 | COC(=O)c1cccc(COc2ccc(C#N)cc2Cl)c1 [Compound 1-3] | 1000 to 2500 | –
44 | O=C(O)c1cc(F)cc(COc2ccc(OC(F)(F)F)cc2Cl)c1 [Compound 1-121] | 100 to 500 | –
45 | O=C(O)c1ccc(COc2ccc(Cl)cc2Cl)cc1 [Compound 1-113] | 500 to 1000 | –
46 | O=C(O)c1cccc(COc2cc(Cl)ccc2Cl)c1 [Compound 1-19] | 1000 to 2500 | –
47 | COC(=O)c1cccc(COc2ccc(C(F)(F)F)cc2Cl)c1 [Compound 1-2] | 100 to 500 | –
48 | O=C(O)c1c(F)ccc(COc2ccc(C(F)(F)F)cc2Cl)c1F [Compound 1-136] | < 100 | –
49 | O=C(O)c1cccc(COc2cccc3c2OC(F)(F)O3)c1 [Compound 1-48] | > 2500 | –
50 | COc1ccc(OCc2cccc(C(=O)O)c2)c(Cl)c1 [Compound 1-92] | 1000 to 2500 | –
51 | O=C(O)c1cccc(COc2ccc(C3CC3)cc2Cl)c1 [Compound 1-122] | 100 to 500 | –
52 | O=C(O)c1cccc(COc2cccc(Br)c2Cl)c1 [Compound 1-142] | 100 to 500 | –
53 | Cc1cc(Cl)ccc1OCc1cccc(C(=O)O)n1 [Compound 1-57] | 100 to 500 | –
54 | Cc1cc(C(F)(F)F)ccc1OCc1cccc(C(=O)O)c1 [Compound 1-16, 3-((2-methyl-4-(trifluoromethyl)phenoxy)methyl)benzoic acid] | < 100 | –
55 | O=C(O)c1cccc(COc2ccc(C(F)(F)F)cc2)c1 [Compound 1-41] | 100 to 500 | –
56 | Cc1ccc(OCc2cccc(C(=O)O)c2)c(C)c1F [Compound 1-60] | 500 to 1000 | –
57 | CC(C)c1ccc(OCc2cccc(C(=O)O)c2)cc1 [Compound 1-86] | 500 to 1000 | –
58 | O=C(O)c1cccc(COc2ccc(Cl)c(F)c2)c1 [Compound 1-59] | < 100 | –
59 | N#Cc1ccc(OCc2cccc(C(=O)O)c2)cc1 [Compound 1-34] | > 2500 | –
60 | CC(=O)c1ccc(OCc2cccc(C(=O)O)c2)cc1 [Compound 1-54] | > 2500 | –
61 | O=C(O)c1cccc(COc2ccc3ccoc3c2)c1 [Compound 1-128] | 500 to 1000 | –
62 | Cc1cc(F)c(F)cc1OCc1cccc(C(=O)O)c1 [Compound 1-71] | 500 to 1000 | –
63 | Cc1c(Cl)cccc1OCc1cccc(C(=O)O)c1 [Compound 1-95] | 100 to 500 | –
64 | O=C(O)c1cccc(COc2ccc(C(F)(F)F)c(Cl)c2)c1 [Compound 1-118] | < 100 | –
65 | O=C(O)c1cccc(COc2ccc(Cl)cc2C(F)(F)F)c1F [Compound 1-62] | < 100 | –
66 | N#Cc1cc(Cl)c(F)cc1OCc1cccc(C(=O)O)c1 [Compound 1-153] | 100 to 500 | –
67 | O=C(O)c1cccc(COc2ccc(C(F)(F)F)c(Cl)c2)n1 [Compound 1-133] | < 100 | –
68 | COc1ccc(OCc2cccc(C(=O)O)c2)cc1 [Compound 1-38] | 100 to 500 | –
69 | Cc1cc(F)ccc1OCc1cccc(C(=O)O)c1 [Compound 1-94] | 1000 to 2500 | –
70 | O=C(O)c1cccc(COc2ccc(Cl)c(F)c2Cl)c1 [Compound 1-148] | < 100 | –

Source: patent publication US11840521B2, “Modulators of Mas-related G-protein receptor X4 and related products and methods” (Escient Pharmaceuticals, Inc., priority 2019, dated 2023)
